# Read-outs that look alike come from different tables or passages of the source.
# How the values were obtained:
# [1] = test system: synthesis of 5-HETE and LTB4 by rat glycogen-elicited polymorphonuclear leukocytes; assay: inhibition of the synthesis of 5-HETE and LTB4 by rat glycogen-elicited polymorphonuclear leukocytes; assay type: cell-based, rat (female Wistar); details: rat PMN, A23187 10 μM; for IC50: Leukocyte, 10 min preincubation
# Description: This is especially true with respect to 5,12-diHETE, which is also denoted as LTB4 [see Ford-Hitchinson, J. Roy. Soc. Med., 74, 831 (1981)]. The assay of this Example measures the ability of the compounds of the invention to inhibit the synthesis of 5-HETE and LTB4 by rat glycogen-elicited polymorphonuclear leukocytes.
# The assay is carried out as follows:
# Peritoneal PMN are obtained from female Wistar rats (150-250 g) that received an i.p. injection of 6% glycogen (10 ml). After 24 hours, rats are killed by CO2 asphyxiation and peritoneal cells are harvested by peritoneal lavage using Ca^++ and Mg^++ free Hanks' balanced salt solution (HBSS). The peritoneal exudate is centrifuged at 400 g for 10 minutes. After centrifugation, the lavaged fluid is removed and the cell pellet is resuspended in HBSS containing Ca^++ and Mg^++ and 10 mM L-cysteine at a concentration of 2×10^7 cells/ml. To 1 ml portions of cell suspension, test drugs or vehicle are added and incubated at 37° C. for 10 minutes. Following this preincubation, the calcium ionophore (10 μM), A23187, is added together with 0.5 μCi[^14 C]arachidonic acid and further incubated for 10 minutes. The reaction is stopped by the addition of ice cold water (3 ml) and acidifying to pH 3.5. Lipoxygenase products are then extracted twice into diethyl ether. The pooled ether extracts are evaporated to dryness under nitrogen and the residue is redissolved in a small volume of methanol and spotted on aluminum backed pre-coated thin layer chromatographic plates. The samples are then co-chromatographed with authentic reference 5-HETE, 12-HETE and 5,12-diHETE in the solvent system--hexane:ether:acetic acid (50:50:3). After chromatography, the areas associated with 5-HETE and 5,12-diHETE standards are identified by autoradiography, cut out and quantitated by liquid scintillation.
# Results are expressed as % inhibition of [^14 C]5-HETE and [^14 C]LTB4 (5,12-HETE) synthesis. [formula]
# Testing compounds of the invention in this assay and using the antioxidant 3-amino-1-[m-(trifluoromethyl)phenyl]-2-pyrazoline (BW755C) as a standard, the following results are obtained.
# [2] = test system: LTD4 induced bronchospasm; assay: in vivo inhibition of bronchospasm induced in guinea pigs by exogenously administered leukotriene LTD4; parameters: species or system guinea pig (male Hartley strain); details: guinea pig, 50 mg/kg intraduodenal, 10 minutes before induction
# Description: The assay of this Example measures the in vivo ability of the compounds of the invention to inhibit the bronchospasm induced in guinea pigs by the exogenously administered leukotrienes C4 and/or D4. This assay is essentially a measure of the SRS-A antagonist properties of the compounds tested.
# This assay is carried out as follows:
# Male Hartley strain guinea pigs (350-600 g) are anesthetized with pentobarbital sodium (50 mg/kg, i.p.). The jugular vein is cannulated for injection of drugs and the carotid artery for monitoring blood pressure. The trachea is cannulated for artificial ventilation by a miniature Starling pump and for indirect measurement of respiratory volume changes as described infra. Additional pentobarbital sodium (15 mg/kg, i.v.) is administered to arrest spontaneous respiration. Submaximal bronchoconstrictor responses are established in control animals by varying the dose-levels of leukotriene. Intravenous dose-levels for LTC4 range from 1 to 2 μg/kg and for LTD4 the range is from 0.3 to 1 μg/kg. The aerosol bronchoprovocation dose for LTC4 is generated from 1.6 μM solution and for LTD4 from a 2.0 μM solution.
# Test drugs are administered either intravenously, intraduodenally, by aerosol or orally at 1 or 10 minutes before induction of bronchospasm by administration of either LTC4 or LTD4 at the predetermined dose-levels. Aerosols of soluble drugs or leukotrienes are produced in-line for 10 seconds only by actuation of an ultrasonic nebulizer (Monaghan). Aerosolized drug dosage is expressed in terms of solution concentration and by a fixed aerosol exposure time (approximately 10 seconds). Control animals receive saline in place of drug.
# Respiratory volume changes are determined by a calibrated piston whose travel is recorded, via a linear transducer, on a Beckman Dynograph recorder. Maximal bronchoconstrictor volume is determined by clamping off the trachea at the end of the experiment. Overflow volumes at 1, 3 and 5 minutes are obtained from the recorded charts.
# The overflow volume at 1, 3 and 5 minutes is expressed as a percentage of maximal bronchoconstriction. Combined group values are used from each of these time intervals to determine the inhibitory effect of drugs. [formula] Students t-test for unpaired data is used to determine statistical significance. Dose response curves are generated and ED50 doses are interpolated from the regression lines.
# Results for a compound of the invention in this assay, using LTD4 for induction of bronchospasm, is given below: […]
"IC50 ([1]; [14C]5-HETE synthesis, read-out: 50% Inhibitory Concentration (IC50), 5-HETE) [µM]","IC50 ([1]; [14C]LTB4 synthesis, read-out: 50% Inhibitory Concentration (IC50), LTB4) [µM]",Structure (SMILES),"% Inhibition at 100 μm, 5-HETE ([1]; [14C]5-HETE synthesis) [%]","% Inhibition at 100 μm, LTB4 ([1]; [14C]LTB4 synthesis) [%]",% Inhibition Overflow Volume at 1 min. [2] [%],% Inhibition Overflow Volume at 3 min. [2] [%],% Inhibition Overflow Volume at 5 min. [2] [%]
–,–,"COC(=O)C1CC(=O)N(c2cccc(OCc3nc4ccccc4o3)c2)C1 (centres unmarked) [Example 2B, N-[3-[(2-benzoxazolyl)methoxy]phenyl]pyrrolidin-2-on-4-carboxylic acid, methyl ester]",87.20,82.80,26,12,15
–,–,"COC(=O)C1CC(=O)N(c2cccc(OCc3nc4ccccc4s3)c2)C1 (centres unmarked) [Example 1, N-[3-[(2-Benzthiazolyl)methoxy]phenyl]pyrrolidin-2-on-4-carboxylic acid, methyl ester]",94.30,84.50,72,66,68
–,–,"COC(=O)C1CC(=O)N(c2cccc(OCc3nc4ccccc4n3C)c2)C1 (centres unmarked) [Example 2A, N-[3-[(1-methyl-2-benzimidazolyl)methoxy]phenyl]pyrrolidin-2-on-4-carboxylic acid, methyl ester]",34.60,32.30,56,20,18
43,30,"NC1=NN(c2cccc(C(F)(F)F)c2)CC1 [BW755C, 3-amino-1-[m-(trifluoromethyl)phenyl]-2-pyrazoline, reference compound]",–,–,–,–,–

# Reference: patent US4554355A, “Heterocyclic compounds as antiallergic agents” (American Home Products Corporation, priority 1984, dated 1985)
